# Reference: PubChem BioAssay (NCI)
#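 1) Cells in 96-well plates. 2) Compound, 48 h, 5 concentrations. 3) Linear interpolation between surrounding doses. 4) Unreached endpoint = highest concentration. Here, GI50 denotes the concentration required for 50% inhibition of growth. At the TGI there is no net growth.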
# Tests used:
# Experiment in all cases: NCI-60 cell line screen, 48 h
# HOP-62 NSCLC = tested on: HOP-62 NSCLC
# TK-10 renal = tested on: TK-10 renal
# RXF 393 renal = tested on: RXF 393 renal
# OVCAR-8 ovarian = tested on: OVCAR-8 ovarian
# LOX IMVI melanoma = tested on: LOX IMVI melanoma
# T-47D breast = tested on: T-47D breast
# NCI-H226 lung = tested on: NCI-H226 lung
# U251 CNS = tested on: U251 CNS
# HOP-92 NSCLC = tested on: HOP-92 NSCLC
# HT29 colon = tested on: HT29 colon
# SW-620 colon = tested on: SW-620 colon
# K-562 leukemia = tested on: K-562 leukemia
# IGROV1 ovarian = tested on: IGROV1 ovarian
# UACC-257 melanoma = tested on: UACC-257 melanoma
# ACHN renal = tested on: ACHN renal
# MDA-MB-435 = tested on: MDA-MB-435
# NCI-H23 lung = tested on: NCI-H23 lung
# 786-0 renal = tested on: 786-0 renal
# SF-268 CNS = tested on: SF-268 CNS
# PC-3 prostate = tested on: PC-3 prostate
# HCT-116 colon = tested on: HCT-116 colon
# SNB-75 CNS = tested on: SNB-75 CNS
# HCC-2998 colon = tested on: HCC-2998 colon
# HL-60(TB) leukemia = tested on: HL-60(TB) leukemia
# MDA-MB-231 breast = tested on: MDA-MB-231 breast
# UACC-62 melanoma = tested on: UACC-62 melanoma
# SK-OV-3 ovarian = tested on: SK-OV-3 ovarian
# HS 578T breast = tested on: HS 578T breast
# RPMI-8226 leukemia = tested on: RPMI-8226 leukemia
# SR leukemia = tested on: SR leukemia
# SK-MEL-2 melanoma = tested on: SK-MEL-2 melanoma
# DU-145 prostate = tested on: DU-145 prostate
# A549 NSCLC = tested on: A549 NSCLC
# KM12 colon = tested on: KM12 colon
# COLO 205 colon = tested on: COLO 205 colon
# SK-MEL-28 melanoma = tested on: SK-MEL-28 melanoma
# UO-31 renal = tested on: UO-31 renal
# NCI/ADR-RES ovarian = tested on: NCI/ADR-RES ovarian
# MOLT-4 leukemia = tested on: MOLT-4 leukemia
# SNB-19 CNS = tested on: SNB-19 CNS
# OVCAR-4 ovarian = tested on: OVCAR-4 ovarian
# CAKI-1 renal = tested on: CAKI-1 renal
# MALME-3M melanoma = tested on: MALME-3M melanoma
# M14 melanoma = tested on: M14 melanoma
# SK-MEL-5 melanoma = tested on: SK-MEL-5 melanoma
# SN12C renal = tested on: SN12C renal
# MCF7 breast = tested on: MCF7 breast
# NCI-H460 lung = tested on: NCI-H460 lung
# OVCAR-5 ovarian = tested on: OVCAR-5 ovarian
# BT-549 breast = tested on: BT-549 breast
# OVCAR-3 ovarian = tested on: OVCAR-3 ovarian
# EKVX NSCLC = tested on: EKVX NSCLC
# A498 renal = tested on: A498 renal
# HCT-15 colon = tested on: HCT-15 colon
# NCI-H522 lung = tested on: NCI-H522 lung
# CCRF-CEM leukemia = tested on: CCRF-CEM leukemia
# SF-295 CNS = tested on: SF-295 CNS
# SF-539 CNS = tested on: SF-539 CNS
structure (smiles),measurement,setting,value
CCCCCN(CCCCC)CC(O)c1ccc(Cl)c2ccccc12 (stereo not given),GI50,HOP-62 NSCLC,13.1 µM
same,TGI,HOP-62 NSCLC,26.5 µM
same,GI50,TK-10 renal,15.5 µM
same,TGI,TK-10 renal,33.9 µM
same,GI50,RXF 393 renal,2.13 µM
same,TGI,RXF 393 renal,8 µM
same,GI50,OVCAR-8 ovarian,16.6 µM
same,TGI,OVCAR-8 ovarian,36.6 µM
same,GI50,LOX IMVI melanoma,3.94 µM
same,TGI,LOX IMVI melanoma,16.4 µM
same,GI50,T-47D breast,4.93 µM
same,TGI,T-47D breast,19.4 µM
same,GI50,NCI-H226 lung,10 µM
same,TGI,NCI-H226 lung,23.1 µM
same,GI50,U251 CNS,12.3 µM
same,TGI,U251 CNS,28.6 µM
same,GI50,HOP-92 NSCLC,0.974 µM
same,TGI,HOP-92 NSCLC,14 µM
same,GI50,HT29 colon,2.24 µM
same,TGI,HT29 colon,20.6 µM
same,GI50,SW-620 colon,2.77 µM
same,TGI,SW-620 colon,13.6 µM
same,GI50,K-562 leukemia,4.23 µM
same,TGI,K-562 leukemia,20.8 µM
same,GI50,IGROV1 ovarian,4.92 µM
same,TGI,IGROV1 ovarian,24.3 µM
same,GI50,UACC-257 melanoma,18.8 µM
same,TGI,UACC-257 melanoma,38.7 µM
same,GI50,ACHN renal,10.3 µM
same,TGI,ACHN renal,22.5 µM
same,GI50,MDA-MB-435,6.43 µM
same,TGI,MDA-MB-435,45 µM
same,GI50,NCI-H23 lung,4.5 µM
same,TGI,NCI-H23 lung,19.9 µM
same,GI50,786-0 renal,11.7 µM
same,TGI,786-0 renal,24.8 µM
same,GI50,SF-268 CNS,13.5 µM
same,TGI,SF-268 CNS,30.1 µM
same,GI50,PC-3 prostate,12.3 µM
same,TGI,PC-3 prostate,31.5 µM
same,GI50,HCT-116 colon,2.13 µM
same,TGI,HCT-116 colon,13.1 µM
same,GI50,SNB-75 CNS,11.7 µM
same,TGI,SNB-75 CNS,35.8 µM
same,GI50,HCC-2998 colon,3.34 µM
same,TGI,HCC-2998 colon,9.72 µM
same,GI50,HL-60(TB) leukemia,5.5 µM
same,TGI,HL-60(TB) leukemia,20.9 µM
same,GI50,MDA-MB-231 breast,10.8 µM
same,TGI,MDA-MB-231 breast,26.4 µM
same,GI50,UACC-62 melanoma,6.25 µM
same,TGI,UACC-62 melanoma,22.2 µM
same,GI50,SK-OV-3 ovarian,13.8 µM
same,TGI,SK-OV-3 ovarian,37.5 µM
same,GI50,HS 578T breast,10.8 µM
same,TGI,HS 578T breast,33.9 µM
same,GI50,RPMI-8226 leukemia,6.43 µM
same,TGI,RPMI-8226 leukemia,27.6 µM
same,GI50,SR leukemia,4.11 µM
same,TGI,SR leukemia,14.7 µM
same,GI50,SK-MEL-2 melanoma,17.4 µM
same,TGI,SK-MEL-2 melanoma,38.2 µM
same,GI50,DU-145 prostate,12.1 µM
same,TGI,DU-145 prostate,30.6 µM
same,GI50,A549 NSCLC,14.2 µM
same,TGI,A549 NSCLC,34 µM
same,GI50,KM12 colon,6.11 µM
same,TGI,KM12 colon,25 µM
same,GI50,COLO 205 colon,3.6 µM
same,TGI,COLO 205 colon,16.5 µM
same,GI50,SK-MEL-28 melanoma,11.2 µM
same,TGI,SK-MEL-28 melanoma,24.4 µM
same,GI50,UO-31 renal,5.16 µM
same,TGI,UO-31 renal,20.6 µM
same,GI50,NCI/ADR-RES ovarian,11.1 µM
same,TGI,NCI/ADR-RES ovarian,24.8 µM
same,GI50,MOLT-4 leukemia,6.69 µM
same,TGI,MOLT-4 leukemia,24 µM
same,GI50,SNB-19 CNS,12.7 µM
same,TGI,SNB-19 CNS,30.1 µM
same,GI50,OVCAR-4 ovarian,12.2 µM
same,TGI,OVCAR-4 ovarian,72.5 µM
same,GI50,CAKI-1 renal,3.35 µM
same,TGI,CAKI-1 renal,18.6 µM
same,GI50,MALME-3M melanoma,15.4 µM
same,TGI,MALME-3M melanoma,32 µM
same,GI50,M14 melanoma,4.51 µM
same,TGI,M14 melanoma,18.7 µM
same,GI50,SK-MEL-5 melanoma,8.39 µM
same,TGI,SK-MEL-5 melanoma,20.8 µM
same,GI50,SN12C renal,10.6 µM
same,TGI,SN12C renal,24.6 µM
same,GI50,MCF7 breast,6.89 µM
same,TGI,MCF7 breast,20.5 µM
same,GI50,NCI-H460 lung,3.72 µM
same,TGI,NCI-H460 lung,19.1 µM
same,GI50,OVCAR-5 ovarian,9.41 µM
same,TGI,OVCAR-5 ovarian,22 µM
same,GI50,BT-549 breast,16.3 µM
same,TGI,BT-549 breast,33.7 µM
same,GI50,OVCAR-3 ovarian,12.4 µM
same,TGI,OVCAR-3 ovarian,26.5 µM
same,GI50,EKVX NSCLC,10.8 µM
same,TGI,EKVX NSCLC,30.4 µM
same,GI50,A498 renal,10.3 µM
same,TGI,A498 renal,29.3 µM
same,GI50,HCT-15 colon,6.98 µM
same,TGI,HCT-15 colon,22.1 µM
same,GI50,NCI-H522 lung,14.4 µM
same,TGI,NCI-H522 lung,32.1 µM
same,GI50,CCRF-CEM leukemia,10.5 µM
same,TGI,CCRF-CEM leukemia,33.1 µM
same,GI50,SF-295 CNS,3.99 µM
same,TGI,SF-295 CNS,26.3 µM
COc1ccc(C2=Nn3c(nnc(Cc4ccc(Cl)cc4)c3=O)SC2)cc1,TGI,HOP-62 NSCLC,> 100 µM
same,TGI,TK-10 renal,> 100 µM
same,TGI,RXF 393 renal,> 100 µM
same,TGI,OVCAR-8 ovarian,> 100 µM
same,TGI,LOX IMVI melanoma,> 100 µM
same,TGI,T-47D breast,> 100 µM
same,TGI,NCI-H226 lung,> 100 µM
same,TGI,U251 CNS,> 100 µM
same,TGI,HOP-92 NSCLC,> 100 µM
same,TGI,HT29 colon,> 100 µM
same,TGI,SW-620 colon,> 100 µM
same,TGI,K-562 leukemia,> 100 µM
same,TGI,IGROV1 ovarian,> 100 µM
same,TGI,UACC-257 melanoma,> 100 µM
same,TGI,ACHN renal,> 100 µM
same,TGI,MDA-MB-435,33.4 µM
same,TGI,SF-539 CNS,> 100 µM
same,TGI,NCI-H23 lung,> 100 µM
same,TGI,786-0 renal,> 100 µM
same,TGI,SF-268 CNS,> 100 µM
same,TGI,PC-3 prostate,> 100 µM
same,TGI,HCT-116 colon,> 100 µM
same,TGI,HCC-2998 colon,> 100 µM
same,TGI,HL-60(TB) leukemia,> 100 µM
same,TGI,MDA-MB-231 breast,> 100 µM
same,TGI,UACC-62 melanoma,> 100 µM
same,TGI,SK-OV-3 ovarian,> 100 µM
same,TGI,HS 578T breast,> 100 µM
same,TGI,RPMI-8226 leukemia,> 100 µM
same,TGI,SK-MEL-2 melanoma,> 100 µM
same,TGI,DU-145 prostate,> 100 µM
same,TGI,A549 NSCLC,> 100 µM
same,TGI,KM12 colon,> 100 µM
same,TGI,COLO 205 colon,> 100 µM
same,TGI,SK-MEL-28 melanoma,> 100 µM
same,TGI,UO-31 renal,> 100 µM
same,TGI,NCI/ADR-RES ovarian,53.7 µM
same,TGI,MOLT-4 leukemia,> 100 µM
same,TGI,SNB-19 CNS,> 100 µM
same,TGI,OVCAR-4 ovarian,> 100 µM
same,TGI,CAKI-1 renal,> 100 µM
same,TGI,MALME-3M melanoma,> 100 µM
same,TGI,M14 melanoma,91 µM
same,TGI,SK-MEL-5 melanoma,> 100 µM
same,TGI,SN12C renal,> 100 µM
same,TGI,MCF7 breast,> 100 µM
same,TGI,NCI-H460 lung,> 100 µM
same,TGI,OVCAR-5 ovarian,> 100 µM
same,TGI,BT-549 breast,> 100 µM
same,TGI,OVCAR-3 ovarian,92.2 µM
same,TGI,EKVX NSCLC,> 100 µM
same,TGI,A498 renal,> 100 µM
same,TGI,HCT-15 colon,> 100 µM
same,TGI,NCI-H522 lung,> 100 µM
same,TGI,CCRF-CEM leukemia,> 100 µM
same,TGI,SF-295 CNS,> 100 µM
